# Tested on: poliovirus
# Type: cell-based
row,Structure (SMILES),Frequency of viral mutagenesis compared to ribavirin
1,"Cc1ncnc2c1ncn2[C@@H]1O[C@H](CO)[C@@H](O)[C@H]1O [Compound 2, 6-methyl-9-β-D-ribofuranosylpurine, reference compound]",neither 6 nor 2 increased the frequency of viral mutagenesis
2,"Cc1ncnc2c1ccn2[C@@H]1O[C@H](CO)[C@@H](O)[C@H]1O [Compound 6, 4-Methyl-7-β-D-ribofuranosylpyrrolo[2,3-d]pyrimidine]",neither 6 nor 2 increased the frequency of viral mutagenesis

# Reference: paper PMC2990348 (Journal of medicinal chemistry, 2010)
